Patent publication US5196421A, “Excitatory amino acid receptor antagonists in methods for the use thereof” (priority 1992, dated 1993)
Values joined by “and” are separate entries in the source; they are usually repeats but may differ in a detail not shown here. Equal values may be shown once.

Experiments:
[1] = biological target: T1, Strychnine-Insensitive [^3 H]Glycine Binding Sites, washed membranes of rat brain cortex (Rattus norvegicus, UniProt P35439); experiment: biochemical; details: for inhibition at 10 µM: 1 h, read-out: [^3 H]-Glycine Binding % DSPL10 @ 10 μM, 10 μM test compound, 60 minutes on ice
T1 construct: washed membranes of rat brain cortex; from tissue; host or cells: brain cortex membranes, male Sprague-Dawley rats (150-175 g)
Method: (§1) Referring to Table IV, there are shown the results obtained in testing a representative number of these compounds. In Table IV, the activity of the compounds for EAA receptor binding is indicated. Compounds were evaluated for their ability to displace [^3 H]-CGS191755, [^3 H]-glycine, [^3 H]-AMPA and [^3 H]-kainate at a screening concentration of 10 μM.
(§2) Binding assays, except for glycine binding, were performed in accordance with the methods described in Schoepp et al., J. Pharmacology and Exp. Therap., Vol. 255, No. 3, pp. 1301-1308 (1990). For all binding assays, male Sprague-Dawley rats (150-175 g) were used. Displacement of the specific binding of ^3 H]CGS19755 (10 nM) to Triton-X-treated synaptosomal membranes of rat forebrain was used to determine NMDA receptor affinity. Nonspecific binding was determined using 10 μM L-glutamate. Samples were incubated in an ice bath for 30 minutes, and bound ligand was separated from the free ligand by rapid filtration through Whatman GF/B glass fiber filters.
The compounds were examined for their ability to displace [^3 H]-glycine from washed membranes of rat brain cortex according to the methods of Shinohara et al., "Ontogeny of Strychnine-Insensitive [^3 H]Glycine Binding Sites in Rat Forebrain", Neurosci. Lett. 105 (1990) 307-311. In each assay, […] [^3 H]-glycine and 25 μg tissue were incubated with test compounds (10 μM in a total volume of 0.5 ml for 60 minutes on ice; incubations were terminated by centrifugation. Non-specific binding was defined as that remaining in the presence of 10 μM D-serine.

[2] = test system: AMPA receptor ([^3 H]AMPA binding, crude membranes of rat forebrain); experiment: [^3 H]-AMPA displacement, EAA receptor binding; details: 10 μM test compound, [^3 H]AMPA 5 nM, 100 mM KSCN
Method: as §1, §2
The binding of [^3 H]AMPA (5 nM) was conducted with crude membranes of rat forebrain in the presence of 100 mM KSCN, as described by Nielsen et al., "Studies on Receptor-Active Conformations of Excitatory Amino Acid Agonists and Antagonists," Eur. J. Med. Chem. Chim. Ther. 21:433-437 (1986). Nonspecific binding was determined with 10 μM nonlabeled AMPA.

[3] = test system: kainate (KA) receptor ([^3 H]Kainate binding, washed synaptosomal membranes from the rat forebrain); experiment: [^3 H]-kainate displacement, EAA receptor binding; details: 10 μM test compound, [^3 H]Kainate 5 nM, pH 7.4, 30 min
Method: as §1, §2
[^3 H]Kainate binding was performed using washed synaptosomal membranes from the rat forebrain, prepared as described by Simon et al., "Binding of [^3 H]Kainic Acid, an Analogue of L-Glutamate, to Brain Membranes," J. Neurochem. 26:141-147 (1976). [^3 H]Kainate (5 nM) was added to 50 mM Tris-HCl buffer (pH 7.4 at 4°) containing 200-300 μg/ml of tissue protein. Samples were incubated for 30 minutes in an ice bath and then rapidly filtered using a Brandel cell harvester and Whatman GF/C filters. Filters were washed twice with 3 ml of cold buffer. Nonspecific binding was determined using 100 μM nonlabeled kainate.

SMILES | inhibition at 10 µM [1] [%] | AMPA % DSPL @ 10 μM [2] [%] | KA % DSPL @ 10 μM [3] [%] | AMPA % DSPL @ 10 μM ([2]; 10 µM) | [^3 H]-Glycine Binding % DSPL10 @ 10 μM ([1]; 10 μM test compound, 60 minutes on ice) [%]
O=c1[nH]c2cc(Cl)c(Cl)cc2n2c(-c3ccccc3)nnc12 [Compound 12, 1-Phenyl-7,8-dichloro-1,2,4-triazolo[4,3-a]quinoxalin-4(5H)-one] | -1 | 3.6 | 8.2 |  | 
Brc1ccc2ncc3nncn3c2c1 [Compound 15, 8-bromo-1,2,4-triazolo[4,3-a]quinoxaline] | -3 | 1.6 | -4.3 |  | 
O=[N+]([O-])c1ccc2c(c1)ncc1nncn12 [Compound 16, 7-nitro-1,2,4-triazolo[4,3-a]quinoxaline] | -5 | 1.7 | 3.0 |  | 
O=c1[nH]c2cc([N+](=O)[O-])ccc2n2cnnc12 [Compound 17, 7-nitro-1,2,4-triazolo[4,3-a]quinoxalin-4(5H)-one] | 52 |  | 34.7 | 85.1% and 77.4% | 
O=c1[nH]c2cc([N+](=O)[O-])c([N+](=O)[O-])cc2n2cnnc12 [Compound 18, 7,8-dinitro-1,2,4-triazolo[4,3-a]quinoxalin-4(5H)-one] | 50 |  | 15.6 | 77.4% and 55.0% | 
O=c1[nH]c2ccc(Br)cc2n2nnnc12 [Compound 21, 8-bromotetrazolo[1,5-a]quinoxalin-4(5H)-one] | 6 | 10.2 | 30.8 |  | 
O=c1[nH]c2ccc([N+](=O)[O-])cc2n2nnnc12 [Compound 22, 8-nitrotetrazolo[1,5-a]quinoxalin-4(5H)-one] | 0 | 0.7 | 0.5 |  | 
O=[N+]([O-])c1ccc2c(c1)ncc1nnnn12 [Compound 23, 7-nitrotetrazolo[1,5-a]quinoxaline] | -1 | 1.0 | -3.8 |  | 
O=c1[nH]c2cc([N+](=O)[O-])ccc2n2nnnc12 [Compound 24, 7-nitrotetrazolo[1,5-a]quinoxalin-4(5H)-one] | 2 | 38.4 | 2.8 |  | 
[N-]=[N+]=Nc1cc2c(cc1F)ncc1nnnn12 [Compound 26, 7-fluoro-8-azidotetrazoloquinoxaline] |  | -1.8 | 5.5 |  | -2
[N-]=[N+]=Nc1cc2c(cc1F)[nH]c(=O)c1nnnn12 [Compound 27, 7-fluoro-8-azidotetrazoloquinoxalin-4(5H)-one] | 5 | 1.7 | 2.5 |  | 
O=c1[nH]c2ccc(Br)cc2c2ccnn12 [Compound 28, 9-bromopyrazolo[1,5-c]quinazolin-5(6H)-one] | 4 | 20.7 | 2.6 |  | 
O=c1[nH]c2ccc(Cl)cc2c2ccnn12 [Compound 29, 9-Chloropyrazolo[1,5-c]quinazolin 5(6H)-one] | 5 | 23.1 | 0.3 |  | 
O=c1[nH]c2c(Cl)cccc2c2ccnn12 [Compound 30, 7-Chloropyrazolo[1,5-c]quinazolin-5(6H)-one] | 0 | 14.8 | -0.4 |  | 
O=c1[nH]c2cc(Cl)ccc2c2ccnn12 [Compound 31, 8-chloropyrazolo[1,5-c]quinazolin-5(6H)-one] | 42 | 46 | 11.5 |  | 
O=c1[nH]c2c(Cl)cc(Cl)cc2c2ccnn12 [Compound 33, 7,9-dichloropyrazolo[1,5-c]quinazolin-5(6H)-one] | -3 | 5.1 | 7.4 |  | 
Cc1cc2c3ccccc3[nH]c(=O)n2n1 [Compound 34, 2-methylpyrazolo[1,5-c]quinazolin-5(6H)-one] | 13 | 0.2 | 0.9 |  | 
O=c1[nH]c2cc(C(F)(F)F)ccc2c2ccnn12 [Compound 35, 8-trifluoromethylpyrazolo[1,5-c]quinazolin-5(6H)-one] | 51 | 54.8 | 8.4 |  | 
Clc1cc2ncc3nccn3c2cc1Cl [Compound 36, 7,8-dichloroimidazo[1,2-a]quinoxaline] | 88 | 53.3 | 23.6 |  | 
O=c1[nH]c2ccc(Cl)cc2c2nc3ccccc3n12 [Compound 38, chlorobenzimidazo[1,2-a]quinazolin-4(5H)-one] | 3 | 4.1 | -0.8 |  | 
